Experimental data from US20100240656A1, “COMPOUNDS AS HSP90 INHIBITORS” (ORYZON GENOMICS, S.A., priority 2007, published 2010).

Key:
Hsp90α = biological target: T1, Hsp90α (Homo sapiens, UniProt P07900); test: Human Hsp90α fluorescence polarization competition assay with Example 37 tracer; settings: displacement of 50 nM example 37 tracer, 125 nM Hsp90α, 1 h 30 min, 20° C.; read-out: Relative binding affinity values (IC50) obtained from FP measurements
T1 construct: purchased Stressgen Bioreagents SPP-776
Excerpt: The aim of this study was to determine the binding ability of compounds of the invention to the N-terminal ATP binding site of Hsp90. For that purpose competition assays with fluorescently labeled Hsp90 binders were used (compounds of examples 37 and 41).
Compounds of examples 37 and 41 are structurally based on 8-(6-Iodo-benzo[1,3]dioxol-5-ylsulfanyl)-9-(3-isopropylamino-propyl)-9H-purin-6-ylamine, a known binder of the N-terminal ATP binding site of Hsp90 which has the ability of inhibiting the Hsp90 function (cf. Chiosis G. et al. “Identification of Potent Water Soluble Purine-Scaffold Inhibitors of the Heat Shock Protein 90”, J. Med. Chem., 2006, vol. 49, no. 1, p. 381). Compounds 37 and 41 keep the essential structural features of the known binder (which means that said compounds are able to bind to the ATP binding site) and incorporate a fluorescent probe which allows the detection of the binding by fluorescence polarization.
When the binders of examples 37 and 41 are used in the competition assay, in a first step said binders are allowed to interact with the N-terminal ATP binding site of Hsp90. Then the compounds of the invention are added and it is determined if they are able to bind to the N-terminal ATP binding site (which will imply that the binders of examples 37 and 41 have been replaced from the N-terminal ATP binding site). If after performing the assay, the binding between the tested compound of the invention and the Hsp90 is observed, this will be indicative that the compound of the invention has been bound to the ATP binding site of Hsp90 and, therefore, can inhibit the Hsp90.
Once compounds of examples 37 and 41 were synthesized as reported above, they were dissolved at 238 μM and 1 mM in DMSO respectively (Sigma-Aldrich, cat. No. 154938). Hsp90α was purchased from Stressgen Bioreagents (cat. No. SPP-776; Victoria, Canada). The assay buffer contained 100 mM Tris·HCl, pH 7.4, 20 mM KCl, 6 mM MgCl2. Before each use 5 μg/mL bovine serum albumin (BSA, Pierce, Rockford (Ill.), cat No. 23209), 0.25 mM TCEP (Sigma, cat No. 64706) and 0.01% NP40 (Nonidet P40 Substitute, Fluka, cat No. 74385) were freshly added (cf. Howes et al., “A fluorescence polarization assay for inhibitors of Hsp90”, Analytical Biochemistry, 2006, vol. 350, p. 202-213; Kim et al., “Development of a fluorescence polarization assay for the molecular chaperone Hsp90”, J. Biomol. Screen., 2004, vol. 9 (5)).
Fluorescence polarization measurements were performed on an Infinite F200 (Tecan, Austria). Measurements were taken in black 96-well microplates (Corning Costar No. 3650) in which both the excitation and the emission occurred from the top of the wells. In the Infinite F200, a xenon arc lamp provides excitation light that passes through a 485 nm (20-nm bandwidth) excitation filter and then a polarizer filter. A beam splitter filter directs the polarized excitation light into the well, and emitted fluorescence transmits back through the same beam-splitter filter, through a polarizer filter, and then through a 535 nm (25-nm bandwidth) emission filter for detection (Kim et al., supra). The read time per well was 20 μs, and the number of reads per well was 25.
Compounds were assayed over a three-fold dilution series in a 96-well plate format to determine IC50 values. The serial dilution was performed in a separate 96-well plate (Thermowell 96 well PCR plate, Non-Treated Polypropylene, Corning Costar No. 6551) at 50 times final assay concentration in DMSO. (Howes et al, supra). 2 μl of compound was transferred to a black 96-well plate (Corning Costar No. 3650) and 98 μL of reaction solution (100 mM Tris·HCl, pH 7.4, 20 mM KCl, 6 mM MgCl2, 5 μg/mL bovine serum albumin (BSA), 0.25 mM TCEP, 0.01% NP40, 50 nM the compound of example 37, 125 nM Hsp90α) was added per well. The plate was allowed to equilibrate for 1 h 30 min on a slow moving shaker at 20° C. in the dark. […]

A-549 = test: Cell proliferation by MTT method, A-549; format: cell-based; settings: Homo sapiens
Description: The objective of this study was to determine the influence of the compounds on cell proliferation of K-562, A-549, MCF-7, HeLa, WI-38 by MTT method. The compounds were tested over a three-fold dilution series in triplicate for the determination of EC50 of their influence on cell proliferation.
The assay is based on the cleavage of the yellow tetrazolium salt MTT into purple formazan by metabolically active cells. The MTT formazan crystals are insoluble in aqueous solution, but may be solubilized by adding the 10% SDS, then incubating the plates overnight in a humidified atmosphere (e.g., 37° C., 5% CO2). The solubilized formazan product can be photometrically quantitated using Tecan reader. An increase in the number of living cells results in an increase of total metabolic activity, which leads to a stronger color formation.
EC50 values are defined as the compound concentration at which 50% of reaction product is formed.
Test compounds were dissolved to 10 mM in 100% DMSO.
In the day of the experiment cells were seeded into all wells of 96-well plates. Serial dilution of compounds was performed in a separate 96-well plate at 20 times final assay concentration in cell culture medium (DMEM with 10% Fetal Bovine Serum). 5 μl of compound was transferred to 96-well plate containing seeded cells in cell culture medium (final total volume=100 μl). Cells were cultured in the presence of the respective test substances in the 96-well plate at 37° C. in a humidified 5% CO2 incubator for a certain period of time (24, 72 or 120 hours). Then 5 μL of thiazolyl blue tetrazolium bromide (MTT) 5 mg/mL was added to the cells and the cells were reincubated 4 hours in a humidified 5% CO2 incubator. Then 10% SDS was added into the each well. The reaction product was quantified by measuring the absorbance at 568 nm using a scanning multiwell spectrophotometer Tecan. The developed color and thereby the absorbance values directly correlate to the number of the living cells.
The data were analyzed using Microsoft Excel 2000, GraphPad Prism 3.03.
K 562 (human, chronic myelongenous leukemia), A 549 (human, lung carcinoma), MCF-7 (human, breast adenocarcinoma), Hela (human, cervix, carcinoma, epitheloid), WI-38 (human, embryonic lung)

[1] = A549, 24 h, A 549, incubation 1 day
[2] = A549, 72 h, A 549, incubation 3 days
[3] = A549, 120 h, A 549, incubation 5 days

| IC50 (Hsp90α) | EC50 (A-549; [1]) | EC50 (A-549; [2]) | EC50 (A-549; [3]) | Structure (SMILES) |
| --- | --- | --- | --- | --- |
| 0.88 µM | > 100 µM | 24.1 µM | 14.9 µM | NCCCCCn1c(Sc2cc3c(cc2I)OCO3)nc(C(N)=O)c1N [Example 6, 5-amino-1-(5-amino-pentyl)-2-(6-iodo-benzo[1,3]dioxol-5-ylsulfanyl)-1H-imidazole-4-carboxamide] |
| 1.7 µM | > 100 µM | 13.3 µM | 16.2 µM | CCCCn1c(Sc2cc3c(cc2I)OCO3)nc(C(N)=O)c1N [Example 10, 5-amino-1-butyl-2-(6-iodo-benzo[1,3]dioxol-5-ylsulfanyl)-1H-imidazole-4-carboxamide] |
